Test system: Acinetobacter baumannii strains
Test: Antibiotic susceptibility test (CLSI disk diffusion test method, read per CLSI 2016); for antibiotic susceptibility S/I/R: key: ‘S’ means susceptible; ‘I’ means intermediate; ‘R’ means resistant; for antibiotic susceptibility class: key: ‘S’ means susceptible; ‘I’ means intermediate; ‘R’ means resistant; for susceptibility category (S/I/R): key: ‘S’ means susceptible; ‘I’ means intermediate; ‘R’ means resistant
Assay type: cell-based
Design: antibiotic susceptibility test value / susceptibility test value (number given before S/I/R) / antibiotic susceptibility value: unit not given here

Substance: piperacillin-tazobactam
- antibiotic susceptibility class (host strain YMC14/01/C29): R
- antibiotic susceptibility test value (host strain YMC14/01/C29): 128
- antibiotic susceptibility class (host strain YMC14/01/IP122): R
- antibiotic susceptibility test value (host strain YMC14/01/IP122): 128
- antibiotic susceptibility class (host strain YMC14/01/L8): R
- antibiotic susceptibility test value (host strain YMC14/01/L8): 128
- antibiotic susceptibility class (host strain YMC14/01/P31): R
- antibiotic susceptibility test value (host strain YMC14/01/P31): 128
- antibiotic susceptibility class (host strain YMC14/01/P117): R
- antibiotic susceptibility test value (host strain YMC14/01/P117): 128
- antibiotic susceptibility class (host strain YMC14/01/P224): R
- antibiotic susceptibility test value (host strain YMC14/01/P224): 128
- antibiotic susceptibility class (host strain YMC14/01/P727): R
- antibiotic susceptibility test value (host strain YMC14/01/P727): 128
- antibiotic susceptibility class (host strain YMC14/01/P728): R
- antibiotic susceptibility test value (host strain YMC14/01/P728): 128
- antibiotic susceptibility class (host strain YMC14/01/R130): R
- antibiotic susceptibility test value (host strain YMC14/01/R130): 128
- antibiotic susceptibility class (host strain YMC14/01/R160): R
- antibiotic susceptibility test value (host strain YMC14/01/R160): 128
- antibiotic susceptibility class (host strain YMC14/01/R198): R
- antibiotic susceptibility test value (host strain YMC14/01/R198): 128
- antibiotic susceptibility class (host strain YMC14/01/R257): R
- antibiotic susceptibility test value (host strain YMC14/01/R257): 128
- antibiotic susceptibility class (host strain YMC14/01/R270): R
- antibiotic susceptibility test value (host strain YMC14/01/R270): 128
- antibiotic susceptibility class (host strain YMC14/01/R324): R
- antibiotic susceptibility test value (host strain YMC14/01/R324): 128
- antibiotic susceptibility class (host strain YMC14/01/R443): R
- antibiotic susceptibility test value (host strain YMC14/01/R443): 128
- antibiotic susceptibility class (host strain YMC14/01/R451): R
- antibiotic susceptibility test value (host strain YMC14/01/R451): 128
- antibiotic susceptibility class (host strain YMC14/01/R560): R
- antibiotic susceptibility test value (host strain YMC14/01/R560): 128
- antibiotic susceptibility class (host strain YMC14/01/R617): R
- antibiotic susceptibility test value (host strain YMC14/01/R617): 128
- antibiotic susceptibility class (host strain YMC14/01/R671): R
- antibiotic susceptibility test value (host strain YMC14/01/R671): 128
- antibiotic susceptibility class (host strain YMC14/01/R732): R
- antibiotic susceptibility test value (host strain YMC14/01/R732): 128
- antibiotic susceptibility class (host strain YMC14/01/R767): R
- antibiotic susceptibility test value (host strain YMC14/01/R767): 128
- antibiotic susceptibility class (host strain YMC14/01/R904): R
- antibiotic susceptibility test value (host strain YMC14/01/R904): 128
- antibiotic susceptibility class (host strain YMC14/01/R905): R
- antibiotic susceptibility test value (host strain YMC14/01/R905): 128
- antibiotic susceptibility class (host strain YMC14/01/R921): R
- antibiotic susceptibility test value (host strain YMC14/01/R921): 128
- antibiotic susceptibility class (host strain YMC14/01/R941): R
- antibiotic susceptibility test value (host strain YMC14/01/R941): 128
- antibiotic susceptibility class (host strain YMC14/01/R958): R
- antibiotic susceptibility test value (host strain YMC14/01/R958): 128
- antibiotic susceptibility class (host strain YMC14/01/R1006): R
- antibiotic susceptibility test value (host strain YMC14/01/R1006): 128
- antibiotic susceptibility class (host strain YMC14/01/R1199): R
- antibiotic susceptibility test value (host strain YMC14/01/R1199): 128
- antibiotic susceptibility class (host strain YMC14/01/R1659): R
- antibiotic susceptibility test value (host strain YMC14/01/R1659): 128
- antibiotic susceptibility class (host strain YMC14/01/R1722): R
- antibiotic susceptibility test value (host strain YMC14/01/R1722): 128
- antibiotic susceptibility class (host strain YMC14/01/R1752): R
- antibiotic susceptibility test value (host strain YMC14/01/R1752): 128
- antibiotic susceptibility class (host strain YMC14/01/R2429): R
- antibiotic susceptibility test value (host strain YMC14/01/R2429): 128
- antibiotic susceptibility class (host strain YMC14/01/R2572): R
- antibiotic susceptibility test value (host strain YMC14/01/R2572): 128
- antibiotic susceptibility class (host strain YMC14/01/R2855): R
- antibiotic susceptibility test value (host strain YMC14/01/R2855): 128
- antibiotic susceptibility class (host strain YMC14/01/R2945): R
- antibiotic susceptibility test value (host strain YMC14/01/R2945): 128
- antibiotic susceptibility class (host strain YMC14/01/R3007): R
- antibiotic susceptibility test value (host strain YMC14/01/R3007): 128
- antibiotic susceptibility class (host strain YMC14/01/R3129): R
- antibiotic susceptibility test value (host strain YMC14/01/R3129): 128
- antibiotic susceptibility class (host strain YMC14/01/R3317): R
- antibiotic susceptibility test value (host strain YMC14/01/R3317): 128
- antibiotic susceptibility class (host strain YMC14/01/R3474): R
- antibiotic susceptibility test value (host strain YMC14/01/R3474): 128
- antibiotic susceptibility class (host strain YMC14/01/R3574): R
- antibiotic susceptibility test value (host strain YMC14/01/R3574): 128
- antibiotic susceptibility class (host strain YMC14/01/U313): R
- antibiotic susceptibility test value (host strain YMC14/01/U313): 128
- antibiotic susceptibility class (host strain YMC14/01/U318): R
- antibiotic susceptibility test value (host strain YMC14/01/U318): 128
- antibiotic susceptibility class (host strain YMC14/02/L18): R
- antibiotic susceptibility test value (host strain YMC14/02/L18): 128
- antibiotic susceptibility class (host strain YMC14/02/P47): R
- antibiotic susceptibility test value (host strain YMC14/02/P47): 128
- antibiotic susceptibility class (host strain YMC14/02/R1860): R
- antibiotic susceptibility test value (host strain YMC14/02/R1860): 128
- antibiotic susceptibility class (host strain YMC14/02/R2417): R
- antibiotic susceptibility test value (host strain YMC14/02/R2417): 128
- antibiotic susceptibility class (host strain YMC14/02/R2599): R
- antibiotic susceptibility test value (host strain YMC14/02/R2599): 128
- antibiotic susceptibility class (host strain YMC14/02/R2668): R
- antibiotic susceptibility test value (host strain YMC14/02/R2668): 128
- antibiotic susceptibility class (host strain YMC14/02/R2758): R
- antibiotic susceptibility test value (host strain YMC14/02/R2758): 128
- antibiotic susceptibility class (host strain YMC14/02/R2781): R
- antibiotic susceptibility test value (host strain YMC14/02/R2781): 128
- antibiotic susceptibility class (host strain YMC14/02/R3106): R
- antibiotic susceptibility test value (host strain YMC14/02/R3106): 128
- antibiotic susceptibility class (host strain YMC14/02/R3419): R
- antibiotic susceptibility test value (host strain YMC14/02/R3419): 128
- antibiotic susceptibility class (host strain YMC14/02/U1607): R
- antibiotic susceptibility test value (host strain YMC14/02/U1607): 128
- antibiotic susceptibility class (host strain YMC14/03/L9): R
- antibiotic susceptibility test value (host strain YMC14/03/L9): 128
- antibiotic susceptibility class (host strain YMC14/03/P471): R
- antibiotic susceptibility test value (host strain YMC14/03/P471): 128
- antibiotic susceptibility class (host strain YMC14/03/R122): R
- antibiotic susceptibility test value (host strain YMC14/03/R122): 128
- antibiotic susceptibility class (host strain YMC14/03/R217): R
- antibiotic susceptibility test value (host strain YMC14/03/R217): 128
- antibiotic susceptibility class (host strain YMC14/03/R380): R
- antibiotic susceptibility test value (host strain YMC14/03/R380): 128
- antibiotic susceptibility class (host strain YMC14/03/R618): R
- antibiotic susceptibility test value (host strain YMC14/03/R618): 128
- antibiotic susceptibility class (host strain YMC14/03/R2144): R
- antibiotic susceptibility test value (host strain YMC14/03/R2144): 128
- antibiotic susceptibility class (host strain YMC14/03/U4616): R
- antibiotic susceptibility test value (host strain YMC14/03/U4616): 128
- antibiotic susceptibility class (host strain YMC14/04/R1078): R
- antibiotic susceptibility test value (host strain YMC14/04/R1078): 128
- antibiotic susceptibility class (host strain YMC14/04/R1080): R
- antibiotic susceptibility test value (host strain YMC14/04/R1080): 128
- antibiotic susceptibility S/I/R (host strain YMC14/06/R2359): R
- antibiotic susceptibility value (host strain YMC14/06/R2359): 128
- susceptibility category (S/I/R) (host strain YMC14/06/R2359): R
- susceptibility test value (number given before S/I/R) (host strain YMC14/06/R2359): 128
- antibiotic susceptibility S/I/R (host strain YMC14/08/R1169): R
- antibiotic susceptibility value (host strain YMC14/08/R1169): 128
- susceptibility category (S/I/R) (host strain YMC14/08/R1169): R
- susceptibility test value (number given before S/I/R) (host strain YMC14/08/R1169): 128
- antibiotic susceptibility S/I/R (host strain YMC14/08/T90): R
- antibiotic susceptibility value (host strain YMC14/08/T90): 128
- susceptibility category (S/I/R) (host strain YMC14/08/T90): R
- susceptibility test value (number given before S/I/R) (host strain YMC14/08/T90): 128
- antibiotic susceptibility S/I/R (host strain YMC15/02/R436): R
- antibiotic susceptibility value (host strain YMC15/02/R436): 128
- susceptibility category (S/I/R) (host strain YMC15/02/R436): R
- susceptibility test value (number given before S/I/R) (host strain YMC15/02/R436): 128
- antibiotic susceptibility S/I/R (host strain YMC15/02/T28): R
- antibiotic susceptibility value (host strain YMC15/02/T28): 128
- susceptibility category (S/I/R) (host strain YMC15/02/T28): R
- susceptibility test value (number given before S/I/R) (host strain YMC15/02/T28): 128
- antibiotic susceptibility S/I/R (host strain YMC15/03/R1604): R
- antibiotic susceptibility value (host strain YMC15/03/R1604): 128
- susceptibility category (S/I/R) (host strain YMC15/03/R1604): R
- susceptibility test value (number given before S/I/R) (host strain YMC15/03/R1604): 128
- antibiotic susceptibility S/I/R (host strain YMC15/09/R1869): R
- antibiotic susceptibility value (host strain YMC15/09/R1869): 128
- susceptibility category (S/I/R) (host strain YMC15/09/R1869): R
- susceptibility test value (number given before S/I/R) (host strain YMC15/09/R1869): 128
- antibiotic susceptibility S/I/R (host strain YMC16/01/P11): R
- antibiotic susceptibility value (host strain YMC16/01/P11): 128
- susceptibility category (S/I/R) (host strain YMC16/01/P11): R
- susceptibility test value (number given before S/I/R) (host strain YMC16/01/P11): 128
- antibiotic susceptibility S/I/R (host strain YMC16/01/R123): R
- antibiotic susceptibility value (host strain YMC16/01/R123): 128
- susceptibility category (S/I/R) (host strain YMC16/01/R123): R
- susceptibility test value (number given before S/I/R) (host strain YMC16/01/R123): 128
- antibiotic susceptibility S/I/R (host strain YMC16/01/R198): R
- antibiotic susceptibility value (host strain YMC16/01/R198): 128
- susceptibility category (S/I/R) (host strain YMC16/01/R198): R
- susceptibility test value (number given before S/I/R) (host strain YMC16/01/R198): 128
- antibiotic susceptibility S/I/R (host strain YMC16/01/R353): R
